Laboratory results taken from patent US9951226B2, “Compound based on cyanine scaffold for diagnosis sepsis by selectively detect glutathione” (EWHA UNIVERSITY—INDUSTRY COLLABORATION FOUNDATION, priority 2014, dated 2018).

Experiments:
[1] = Glutathione selectivity: absorption/fluorescence spectrum with various amino acids in HEPES buffer; format: biochemical
Description: 10 μM of the compound prepared in Example 2 was treated to HEPES (4-(2-hydroxyethyl)piperazine-1-ethanesulfonic acid) buffer (10 mM, pH=7.4) containing 10% DMSO and 100 μM of each glutathione, cysteine, homocysteine, dithiothreitol, phenylalanine, histidine, glutamine, lysine, glutamate, glycine, serine, alanine, arginine, methionine, and tyrosine, followed by observation of fluorescence spectrum at 25° C. by using RF-5310/PC fluorescence spectrometer (Shimada, 1 cm quartz cell).
An experiment was performed by the same manner as described in Experimental Example 3 except that the fragment 1 or the fragment 2 was used instead of the compound prepared in Example 2. […] To disclose the reason in relation to the above, the 3-dimensional structure of each of the compound of Example 1, the compound of Example 2, and the fragment 1 or the fragment 2, was investigated along with band-gap.
10 μM of the compound prepared in Example 3 and 100 μM of each endogenous amino acid (alanine, arginine, cysteine, glutamate, glycine, glutathione, homocysteine, histidine, lysine, methionine, serine, and tyrosine) were added to HEPES (4-(2-hydroxyethyl)piperazine-1-ethanesulfonic acid) buffer (10 mM, pH=7.4) containing 10% dimethylsulfoxide (DMSO), followed by observation of absorption spectrum presented through UV-vis sepctra (Scinco 3000 spectrophotometer, 1 cm quartz cell) at 25° C.
The following experiment was performed by the same manner as described in Experimental Example <15-1> except that fluorescence spectrum was observed by using RF-5310/PC fluorescence spectrometer (Shimada, 1 cm quartz cell) instead of observing absorption spectrum via UV-vis sepctra (Scinco 3000 spectrophotometer, 1 cm quartz cell) (λex=730 nm, λem=736 nm, slit:10/10 nm).

[2] = Absorption and fluorescence spectrum according to the concentration of glutathione; format: biochemical; conditions: for absorption signal at 830 nm / fluorescence signal at 780 nm: 10 μM compound
Description: 10 μM of the compound prepared in Example 2 and glutathione were added to HEPES (4-(2-hydroxyethyl)piperazine-1-ethanesulfonic acid) buffer (10 mM, pH=7.4) containing 10% dimethylsulfoxide (DMSO) with raising slowly the concentration of glutathione from 0 to 50 μM, during which the changes of absorption spectrum were observed using UV-vis sepctra (Scinco 3000 spectrophotometer, 1 cm quartz cell) at 25° C.
The following experiment was performed by the same manner as described in Experimental Example <4-1> except that fluorescence spectrum was observed by using RF-5310/PC fluorescence spectrometer (Shimada, 1 cm quartz cell) instead of observing absorption spectrum via UV-vis sepctra (Scinco 3000 spectrophotometer, 1 cm quartz cell) (λex=730 nm, λem=736 nm, slit:10/10 nm).
10 μM of the compound prepared in Example 3 and glutathione were added to HEPES (4-(2-hydroxyethyl)piperazine-1-ethanesulfonic acid) buffer (10 mM, pH=7.4) containing 10% dimethylsulfoxide (DMSO) with raising slowly the concentration of glutathione from 0 to 100 μM, during which the changes of absorption spectrum were observed using UV-vis sepctra (Scinco 3000 spectrophotometer, 1 cm quartz cell) at 25° C.
The following experiment was performed by the same manner as described in Experimental Example <16-1> except that fluorescence spectrum was observed by using RF-5310/PC fluorescence spectrometer (Shimada, 1 cm quartz cell) instead of observing absorption spectrum via UV-vis sepctra (Scinco 3000 spectrophotometer, 1 cm quartz cell) (λex=730 nm, λem=736 nm, slit:10/10 nm).

[3] = test system: HeLa cells; experiment: Detection of intracellular biothiol in HeLa cells, confocal laser scanning microscope; format: cell-based, human; conditions: 10 μM compound
Description: HeLa cells (human adenocarcinoma cells, Korea Cell Line Bank) were cultured in RPMI 1640 (Roswell Park Memorial Institute) supplemented with 10% heat-inactivated fetal bovine serum (FBS), 100 U/mL penicillin, and 100 U/mL streptomycin in a 37° C. 5% CO2 incubator. The cells were either treated or not treated with 1 mM of N-methylmaleimide (NMM) known as a thiol blocker for 20 minutes. 100 μM of each amino acid containing thiol group (R—SH) such as cysteine, homocysteine, and glutathione was added thereto. Then, the cells were seeded in 35-mm glass bottomed dishes at the density of 3×10^5 cells/dish in 1640 medium. 24 hours later, 10 μM of the compound prepared in Example 1 was added thereto, followed by culture at 37° C. for 20 minutes. The cells were washed with DPBS (Dulbecco's Phosphate Buffered Saline) twice to eliminate the remaining compound, followed by imaging with confocal laser scanning microscope (Fluoview 1200, Olympus, Japan). At this time, the emitting filter with the excitation wavelength of 635 nm and the band-path (BP) of 655˜755 nm was used.

[4] = Detection of biothiol: absorption and fluorescence spectrum with endogenous amino acids in HEPES buffer; format: biochemical; conditions: 10 μM compound; for absorption strength at 750 nm: HEPES pH 7.4, 10% DMSO, 25° C.; for fluorescence strength at 736 nm: λex=730 nm
Description: 10 μM of the compound prepared in Example 1 and 100 μM of each endogenous amino acid (glutathione, cysteine, homocysteine, dithiothreitol, phenylalanine, histidine, glutamine, lysine, glutamate, glycine, serine, alanine, arginine, methionine, tyrosine) were added to HEPES (4-(2-hydroxyethyl)piperazine-1-ethanesulfonic acid) buffer (10 mM, pH=7.4) containing 10% dimethylsulfoxide (DMSO), followed by observation of absorption spectrum presented through UV-vis sepctra (Scinco 3000 spectrophotometer, 1 cm quartz cell) at 25° C.
The following experiment was performed by the same manner as described in Experimental Example <1-1> except that fluorescence spectrum was observed by using RF-5310/PC fluorescence spectrometer (Shimada, 1 cm quartz cell) instead of observing absorption spectrum via UV-vis sepctra (Scinco 3000 spectrophotometer, 1 cm quartz cell) (λex=730 nm, λem=736 nm, slit:10/10 nm).

[5] = 10 μM compound, 100 μM other amino acids except glutathione
[6] = glutathione raised from 0 to 100 μM
[7] = 100 μM amino acids containing thiol group (glutathione, cysteine, homocysteine, dithiothreitol)
[8] = 100 μM other amino acids not-containing thiol group

SMILES: CCCCN1C(=O)c2cccc3c(S(=O)(=O)N4CCN(C5=C(/C=C/C6=[N+](CCC)c7ccccc7C6(C)C)CCC/C5=C\C=C5\N(CCC)c6ccccc6C5(C)C)CC4)ccc(c23)C1=O.[I-] [Example 3, 2-((E)-2-((E)-2-(4-((2-butyl-1,3-dioxo-2,3-dihydro-1H-benzeneisoquinoline-6-yl)sulfonyl)piperazine-1-yl)-3-((E)-2-(3,3-dimethyl-1-propylindolin-2-ylidene)ethylidene)cyclohex-1-en-1-yl)binyl)-3,3-dimethyl-1-propyl-3H-indolium iodide]
- fluorescence signal near 780 nm ([1]; 10 μM compound, 100 μM glutathione): strong fluorescence signal
- absorption signal near 830 nm ([1]; 10 μM compound, 100 μM glutathione, HEPES pH 7.4, 10% DMSO, 25° C.): weak absorption signal
- absorption signal at 830 nm [1, 5]: strong absorption signal
- fluorescence signal at 780 nm [1, 5]: weak fluorescence signal
- absorption signal at 830 nm ([2]; glutathione not added): strong absorption signal
- fluorescence signal at 780 nm ([2]; glutathione not added): weak fluorescence signal
- absorption signal at 830 nm [2, 6]: getting weaker
- fluorescence signal at 780 nm [2, 6]: getting stronger
- dependence of the reaction on glutathione concentration ([2]; conclusion from absorption and fluorescence spectra): dose-dependently

SMILES: CCCN1/C(=C/C=C2\CCCC(/C=C/C3=[N+](CCC)c4ccccc4C3(C)C)=C2N2CCNCC2)C(C)(C)c2ccccc21 [fragment 2, 2-((E)-2-((E)-3-((E)-2-(3,3-dimethyl-1-propylindolin-2-ylidene)ethylidene)-2-(piperazine-1-yl)cyclohex-1-enyl)binyl)-3,3-dimethyl-1-propyl-3H-indolium iodide]
- changes in absorption or fluorescence spectrum (capacity of detecting glutathione) ([1]; same manner as Experimental Example 3, fragment instead of Example 2): no changes in absorption or fluorescence spectrum were detected

SMILES: CCCN1/C(=C/C=C2\CCCC(/C=C/C3=[N+](CCC)c4ccccc4C3(C)C)=C2N2CCN(S(=O)(=O)c3ccc([N+](=O)[O-])cc3[N+](=O)[O-])CC2)C(C)(C)c2ccccc21.[I-] [Example 1, 2-((E)-2-((E)-3-((E)-2-(3,3-dimethyl-1-propylindolium-2-ylidene)ethylidene)-2-(4-(2,4-dinitrophenylsulfonyl)piperazine-1-yl)cyclohex-1-enyl)binyl)-3,3-dimethyl-1-propyl-3H-indolium iodide]
- red fluorescence under confocal laser scanning microscope ([3]; HeLa cells pre-treated with NMM, 100 μM cysteine added): strong red fluorescence was observed
- red fluorescence under confocal laser scanning microscope ([3]; HeLa cells pre-treated with NMM, 100 μM glutathione added): strong red fluorescence was observed
- red fluorescence under confocal laser scanning microscope ([3]; HeLa cells pre-treated with NMM, 100 μM homocysteine added): strong red fluorescence was observed
- red fluorescence under confocal laser scanning microscope ([3]; HeLa cells pre-treated with thiol blocker NMM 1 mM): red fluorescence was not observed
- red fluorescence under confocal laser scanning microscope ([3]; HeLa cells, 20 minutes): strong red fluorescence was detected
- absorption strength at 750 nm [4, 7]: strong absorption strength
- fluorescence strength at 736 nm [4, 7]: strong fluorescence strength
- absorption strength at 750 nm [4, 8]: weak absorption strength
- fluorescence strength at 736 nm [4, 8]: weak fluorescence strength
